Publication PMC10302146, “Dual Anta-Inhibitors Targeting Protein Kinase CK1δ and A2A Adenosine Receptor Useful in Neurodegenerative Disorders” (Molecules, 2023)

Assays:
[1] = system: N13 cell line; experiment: Griess assay, nitrite production (antioxidant effect); type: cell-based; conditions: for antioxidant activity (Griess Reagent System): compound 1 7500 nM, incubated for 1 hr, vs. ZM241385 10 nM
From the text: In addition, since oxidative stress has received extensive attention as one important entry point in the pathogenesis of neurodegenerative diseases, the potential antioxidant profile of compounds 1 and 2 was investigated. Oxidative stress and neuroinflammation play synergistic roles in the promotion of neurodegenerative disease progression. During a CNS insult, there is an activation of microglial cells, which stimulate immune responses to instigate tissue repair. If the triggering cause of the immune response is eradicated, the immune response resolves, but if the initial stress persists, it will lead to an overproduction of neurotoxic factors such as chemokines and proinflammatory cytokines such as Tumor Necrosis Factor-α (TNF-α) and Interleukin-1β (IL-1β). This pathological state will lead to an overproduction of ROS and a state of oxidative stress. High levels of ROS inactivate or damage proteins, leading to cellular degeneration and death. Furthermore, ROS can activate proinflammatory pathways, further promoting a harmful environment for vulnerable neurons. In light of this, the potential antioxidant capacity of compounds was studied. […] The combination of anti-inflammatory and antioxidant activities makes compound 2 particularly appealing in counteracting two of the factors involved in the pathogenesis of neurodegenerative pathologies.
The N13 cell line was introduced into a 96-well UV-VIS transparent plate at a population of 1 × 10^4 cells per well in 98 μL of DMEM and incubated overnight. […] After 24 h of incubation, the media from each well was transferred into another 96-well plate, and then 50 µL of the sulphanilamide solution was placed into the wells. After 10 min of incubation at room temperature (rt), 50 µL of the NED solution was dispensed to all wells, and the plate was incubated at rt for an additional 5–10 min. After half an hour, absorbance was measured in the microplate reader GENiosPro using a 520–550 nm filter. All measurements were reproduced in 3–5 replicates. The nitric oxide formation was investigated by measuring nitrite (NO^2−), which is one of two primary breakdown products of NO. A nitrite standard reference curve was used for quantitative evaluation of the concentration of NO^2− in samples.

[2] = target: human recombinant A3AR; parameters: method as in PMID 37259317; conditions: [3H]HEMADO, membranes from CHO cells stably transfected; means ± standard errors; read-out: KiA3; cited from earlier work
[3] = system: N13 microglial cells; experiment: N13 cell viability, ligand pretreatment 60 min then CK cocktail 48 h (CK1δ inhibition protocol); type: cell-based
[4] = target: human recombinant A1AR; parameters: method as in PMID 37259317; conditions: [3H]CCPA, membranes from CHO cells stably transfected; means ± standard errors; read-out: KiA1; cited from earlier work
[5] = system: CK1δ; parameters: method as in PMID 37259317; conditions: cited from earlier work; for IC50: enzymatic inhibition
[6] = system: N13 microglial cells; experiment: N13 cell viability (CellTiter 96 AQueous One, MTS), ligands alone; type: cell-based; conditions: absence of CK cocktail
Procedure: Starting from these observations, since this double effect could be a suitable strategy for the treatment of chronic neurodegenerative diseases, in which neuroinflammation plays a crucial role, these compounds were tested on an in vitro model of neuroinflammation in comparison with the reference compounds. The experiments were performed using N13 microglial cells. The colorimetric method CellTiter 96® AQueous One Solution Cell Proliferation assay was used to determine the number of live cells in cytotoxicity or proliferation assays. The tetrazole compound MTS was bio-reduced by the cells into formazan, a colored product soluble in the cellular medium. The percentage of cell viability was analyzed through an absorbance reading at 492 nm. The concentrations of ligands were chosen based on the results of binding assays. Specifically, lower, similar, and higher concentrations than the Ki value were used.
Experiments were performed in triplicate.

| Structure (SMILES) | antioxidant activity (Griess Reagent System) ([1]; compound 2 4500 nM) | Ki [2] [nM] | viability at 40 µM ([3]; N13, 40 µM 60 min before CK cocktail 48 h, CK cocktail alone 79% ± 1.1 vs. control) [%] | Ki [4] [nM] | % Residual Activity at 10 μM ± sd [5] [%] | % Residual Activity at 40 μM ± sd [5] [%] | IC50 [5] [nM] | cell viability vs. control ([6]; 0.625 µM, 30 min) | cell viability vs. control ([6]; 7.5 µM, 30 min) | cell viability vs. control ([6]; 7.5 µM, 60 min) | amount of nitrite produced vs. control ([1]; 4500 nM) | compensation of oxidative stress caused by the CK cocktail ([1]; compound 2 4500 nM, ZM241385 10 nM) | cell viability ([3]; 25 µM 60 min before CK cocktail 48 h, CK cocktail alone 79% ± 1.1 vs. control (Figure 6)) | effect of NECA on the neuroprotective effect of the compound ([3]; compound 25 µM 60 min before CK cocktail 48 h, then NECA 10 µM) | cell viability vs. control ([6]; 0.375 µM, 30 min) | cell viability vs. control ([6]; 4.5 µM, 60 min) | cell viability vs. control ([6]; 0.375 and 0.75 µM, 60 min) | cell viability vs. control ([6]; all concentrations (0.375, 0.75, 4.5 µM), 30 min) |
| --- | --- | --- | --- | --- | --- | --- | --- | --- | --- | --- | --- | --- | --- | --- | --- | --- | --- | --- |
| CN(C)c1nc(N)c2ncn(C3CCCC3)c2n1 [compound 1, 9-Cyclopentyl-N2,N2-dimethyl-9H-purine-2,6-diamine] | no significant antioxidant activity | 2880 ± 695 | 85 | 3340 ± 658 | 27 ± 4.0 | 19 ± 9.4 | 1750 ± 200 | 112% ± 2.4 | lower cell viability with respect to the control | cell viability similar to the control | – | – | – | – | – | – | – | – |
| CN(C)c1nc(NCc2nc3ccccc3[nH]2)c2ncn(C3CCCC3)c2n1 [compound 2, N^6-methyl-(2-benzimidazolyl)-2-dimethyamino-9-cyclopentyladenine] | important antioxidant effect similar to that of the reference compound | 1150 ± 107 | – | 2900 ± 648 | 34 ± 5.0 | 22 ± 1.0 | 590 ± 200 | – | – | – | inferior to that revealed in the control | successfully compensated | 94% ± 2.2 | ineffective | 86% ± 1.2 | 109% ± 1.4 | decrease in cell viability similar to 30 min of incubation | decrease in cell viability |
